Reference: patent US6410546B1, “Use of MKC-442 in combination with other antiviral agents” (Triangle Pharmaceuticals, Inc., priority 1997, dated 2002)

Key:
[1] = test system: HIV; conditions: as reported in the prior art; cited from earlier work
[2] = test system: HIV; assay: Phase I/II double-blind, placebo controlled trial of repeated multiple oral doses
Description: Preliminary data from a Phase I/II double-blind, placebo controlled trial designed to evaluate the safety and efficacy of repeated multiple oral doses of MKC-442 in HIV-infected patients has now also been evaluated. A total of 49 patients were treated with MKC-442 for up to two months. Doses ranging from 100 mg to 1000 mg twice a day were given to groups of six to eight patients at each dosage level.

[3] = in vivo; parameters: species or system rats; conditions: rat
Text: In rats, for example, the concentration of MKC-442 in the brain was 100% of that seen in the plasma.

[4] = Phase I study, single escalating doses: pharmacokinetics and tolerance; format: in vivo, HIV-infected volunteers
Text: A Phase I study evaluated the pharmacokinetics and tolerance of single escalating doses of MKC-442 in HIV-infected volunteers.

[5] = test system: wild-type (drug-sensitive) and several mutant strains of HIV; assay: Cell culture assay systems, inhibition of HIV replication (alone and in drug combinations); format: cell-based
Text: MKC-442, although a nucleoside analogue, functions as a non-nucleoside reverse transcriptase inhibitor. It is considered an allosteric inhibitor because it appears to exert its activity by binding to an “allosteric position”, i.e., one other than the binding site, of the enzyme.

Compound | activity against HIV [1] | toxicity [1] | viral load reduction (average) ([2]; 705 mg and 1000 mg twice a day, all patients, after one week) | tolerability ([2]; over 308 patient-weeks of drug exposure, 100 mg to 1000 mg twice a day) | Kp [3] | penetration into the central nervous system [3] | oral bioavailability ([3]; po) | concentrations of the drug in the plasma ([4]; groups receiving higher doses, compared with levels required to suppress 90% of the virus in culture) | tolerance ([4]; single escalating doses, HIV-infected volunteers) | combination effect on HIV replication ([5]; three drug combination with AZT and saquinavir) | combination effect on HIV replication ([5]; two drug combination with AZT) | combination effect on HIV replication ([5]; two drug combination with DDI) | potency compared with nevirapine ([5]; wild-type and mutant strains of HIV) | ability to inhibit HIV replication ([5]; wild-type and mutant strains resistant to established non-nucleoside reverse transcriptase inhibitors)
Nc1ccn(C2CSC(CO)O2)c(=O)n1 (racemic) [BCH-189, 2-hydroxymethyl-5-(cytosin-1-yl)-1,3-oxathiolane] | approximately the same activity against HIV as AZT | little toxicity | – | – | – | – | – | – | – | – | – | – | – | –
Nc1nc(=O)n([C@@H]2CS[C@H](CO)O2)cc1F (relative stereo) [FTC, cis-2-hydroxymethyl-5-(5-fluorocytosin-1-yl)-1,3-oxathiolane] | potent HIV activity | – | – | – | – | – | – | – | – | – | – | – | – | –
CCOCn1c(Cc2ccccc2)c(C(C)C)c(=O)[nH]c1=O [MKC-442, 6-benzyl-1-(ethoxymethyl)-5-isopropyluracil] | – | – | 96% | well tolerated | 1 | excellent | good | mich higher than the levels required to suppress 90% of the virus in culture | generally well tolerated | synergistic inhibition | synergistic inhibition | synergistic inhibition | greater potency than nevirapine | retained much of its ability to inhibit HIV replication
